The record followed here is ChEMBL document CHEMBL3632489, “Inhibitory kinetics of novel 2,3-dihydro-1H-inden-1-one chalcone-like derivatives on mushroom tyrosinase” (Bioorg Med Chem Lett, 2015).

The target in test [1] is T1, Tyrosinase (Agaricus bisporus) (UniProt O42713).
T1 sequence (whole entry): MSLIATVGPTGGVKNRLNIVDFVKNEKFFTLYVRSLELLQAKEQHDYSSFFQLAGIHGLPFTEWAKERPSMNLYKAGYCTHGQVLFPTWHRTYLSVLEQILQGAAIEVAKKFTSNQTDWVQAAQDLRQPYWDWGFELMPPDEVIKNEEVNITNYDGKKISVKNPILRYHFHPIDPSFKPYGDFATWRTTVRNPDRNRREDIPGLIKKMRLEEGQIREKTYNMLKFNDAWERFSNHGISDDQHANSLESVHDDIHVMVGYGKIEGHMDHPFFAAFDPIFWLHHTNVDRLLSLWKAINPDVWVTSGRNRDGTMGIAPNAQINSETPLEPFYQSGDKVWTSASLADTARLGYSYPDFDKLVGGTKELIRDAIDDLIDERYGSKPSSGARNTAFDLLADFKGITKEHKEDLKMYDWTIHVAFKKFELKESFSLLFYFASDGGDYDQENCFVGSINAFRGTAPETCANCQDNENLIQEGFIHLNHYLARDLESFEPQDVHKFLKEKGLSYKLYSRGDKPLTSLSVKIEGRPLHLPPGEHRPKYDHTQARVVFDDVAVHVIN
Briefly: Reversible inhibition of mushroom tyrosinase diphenolase activity using L-DOPA as substrate at 0.25 to 2.0 uM.

The target in test [2] is T1, Tyrosinase (Agaricus bisporus). Briefly: Potency index, ratio of IC50 for kojic acid to IC50 for test compound for inhibition of mushroom tyrosinase diphenolase activity.
Test [3] has as its target T2, Tyrosinase (Agaricus bisporus, UniProt O42713).
T2 sequence (O42713 whole entry): T1 sequence (whole entry)
Description: Competitive inhibition of mushroom tyrosinase polyphenol oxidase activity using L-DOPA as substrate by Dixon plot analysis

In test [4] the target is T1, Tyrosinase (Agaricus bisporus). The test is described as follows: Competitive inhibition of mushroom tyrosinase diphenolase activity using L-DOPA as substrate at 1.25 to 20 uM by Lineweaver Burk plot analysis.
For test [5] the target is unchanged. The test is described as follows: Inhibition of mushroom tyrosinase diphenolase activity using L-DOPA as substrate.
Test [6] deals with T2, Tyrosinase. The source holds these as a separate data set.

SMILES strings stand for the structures. Activity calls are given as the source filed them. No cut-off for these calls is given here.

For `O=C1/C(=C\c2ccc(O)cc2O)Cc2ccccc21`, the inhibition result in test [1] and in test [4] was “Active” each time. Also, the Ratio IC50 in test [2] is 2.23. Affinity on Tyrosinase [3] was put at a Ki of 10.3 µM. Moreover, in test [5], the inhibition result is “Dose-dependent effect”. For the same compound, the IC50 – broadly, the concentration that gives 50% inhibition – at Tyrosinase [6] is 12.3 µM.
In the case of `O=C1/C(=C\c2ccc(O)c(O)c2)Cc2ccccc21`, the inhibition entry in test [1] and in test [4] was “Active” in each case. For the same compound, the Ratio IC50 in test [2] was found to be 3.35. At Tyrosinase [3], the Ki (commonly the equilibrium dissociation constant of an inhibitor or competing ligand from its target) came to 8.7 µM. For the same compound, in test [5], the inhibition result is “Dose-dependent effect”. At Tyrosinase [6], this compound yielded an IC50 of 8.2 µM.
